Assay results published in patent US10717730B1, “Dihydroisoquinoline compound” (SUZHOU ARK BIOPHARMACEUTICAL CO., LTD., priority 2017, dated 2020).

Tests used:
[1] = test system: HBsAg; assay: HBsAg assay (secreted HBsAg by CLIA in HepG2.2.15 cells); type: cell-based, hepatitis B virus (HBV); details: Hepatitis B virus, HepG2.2.15, 96 h
Summary of the method: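 HepG2.2.15 cells were exposed to a five-fold compound dilution series (0.5% DMSO final) for four days. Secreted HBsAg in supernatant quantified by chemiluminescence immunoassay; IC50 extrapolated from dose-response curves.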

[2] = Cytotoxicity CC50 (CellTiter-Glo); type: cell-based; details: human; HepG2.2.15 cells, four days
Protocol: HepG2.2.15 cells were seeded into 96-well white plate at 5000 cells/well and treated with serially diluted compounds. The plates were incubated in incubator with 5% CO2 at 37° C. for four days. The plate was taken out of incubator and adapted to room temperature for 30 minutes, followed by adding 25 μl CellTiter-Glo (Promega) reagent into each well and votexed at room temperature before being measured for luminance using spectrometer (Tecan Infinite® F200). The CC50 of each compound was defined as the compound concentration at which the treated well's cell viability is 50% compared to that of the DMSO treated well.

Row | SMILES | IC50 [1] [nM] | CC50 at 4 days [2] [nM]
1 | CCOC(=O)CCn1cc(-c2cc3c(cc2OC)-c2cc(=O)c(C(=O)OCC)cn2C(C(C)(C)C)C3)ccc1=O (centres unmarked) [Example 72, Ethyl 6-(tert-butyl)-9-(1-(3-ethoxy-3-oxopropyl)-6-oxo-1,6-dihydropyridin-3-yl)-10-methoxy-2-oxo-6,7-dihydro-2H-pyrido[2,1-a]isoquinoline-3-carboxylate] | 565 | 50000 to 100000
2 | COc1cc2c(cc1-c1cnc(N3CCC(C(=O)O)CC3)nc1)CC(C(C)(C)C)n1cc(C(=O)O)c(=O)cc1-2 (centres unmarked) [Example 73, 6-(tert-butyl)-9-(2-(4-carboxypiperidin-1-yl)pyrimidin-5-yl)-10-methoxy-2-oxo-6,7-dihydro-2H-pyrido[2,1-a]isoquinoline-3-carboxylic acid] | 67 | > 100000
3 | CCN1CCN(c2ncc(-c3cc4c(cc3OC)-c3cc(=O)c(C(=O)O)cn3C(C(C)(C)C)C4)cn2)CC1 (centres unmarked) [Example 63, 6-(tert-butyl)-9-(2-(4-ethylpiperazin-1-yl)pyrimidin-5-yl)-10-methoxy-2-oxo-6,7-dihydro-2H-pyrido[2,1-a]isoquinoline-3-carboxylic acid] | 27 | 50000 to 100000
4 | CCOC(=O)CCCn1cc(-c2cc3c(cc2OC)-c2cc(=O)c(C(=O)OCC)cn2C(C(C)(C)C)C3)ccc1=O (centres unmarked) [Example 75, Ethyl 6-(tert-butyl)-9-(1-(4-ethoxy-4-oxobutyl)-6-oxo-1,6-dihydropyridin-3-yl)-10-methoxy-2-oxo-6,7-dihydro-2H-pyrido[2,1-a]isoquinoline-3-carboxylate] | 466 | 50000 to 100000
